Test results published in patent US20090258870A1, “NOVEL ANSAMITOCIN DERIVATIVES” (priority 2008, published 2009).
Converted amounts (≈) assume the structure as drawn.

Legend:
KB-3-1 = experiment: Growth inhibition of KB-3-1 cells, MTT assay; format: cell-based, human; settings: for Antiproliferative activity IC50: KB-3-1, cervix carcinoma, 5 days, MTT
Protocol: (§1) For the detailed evaluation of their biological profile as anti-cancer agents, cultured human tumor cell lines were treated with the new ansamitocin derivatives. In particular, the 19-fluoro-20-demethoxyansamitocin P3 (F-A), 19-chloro-20-demethoxyansamitocin P3 (Cl-A), 19-bromo-20-demethoxyansamitocin P3 (Br-A), and the 20-demethoxy-19-vinylansamitocin P3 (VI) were tested for their inhibitory effect on cell growth of different cell lines, namely KB-3-1, U-937, PC-3, SK-OV-3, A-498, A-431, and A-549, in comparison to natural biosynthesis product Ansamitocin P-3 (AP-3). Growth inhibition was measured in microtiter plates. 60 μl of serial dilutions of the test compounds were added to aliquots of 120 μl of the suspended cells (50000/ml). After 5 days the growth was determined using a MTT assay, except for U-937, where the WST-1 assay from Roche was employed.

A-431 = experiment: Growth inhibition of A-431 cells, MTT assay; format: cell-based, human; settings: for Antiproliferative activity IC50: A-431, epidermoid carcinoma, 5 days, MTT
Protocol: as §1

SK-OV-3 = experiment: Growth inhibition of SK-OV-3 cells, MTT assay; format: cell-based, human; settings: for Antiproliferative activity IC50: SK-OV-3, ovarian carcinoma, 5 days, MTT
Protocol: as §1

A-549 = experiment: Growth inhibition of A-549 cells, MTT assay; format: cell-based, human; settings: for Antiproliferative activity IC50: A-549, lung carcinoma, 5 days, MTT
Protocol: as §1

PC-3 = experiment: Growth inhibition of PC-3 cells, MTT assay; format: cell-based, human; settings: for Antiproliferative activity IC50: PC-3, prostate carcinoma, 5 days, MTT
Protocol: as §1

A-498 = experiment: Growth inhibition of A-498 cells, MTT assay; format: cell-based, human; settings: for Antiproliferative activity IC50: A-498, kidney carcinoma, 5 days, MTT
Protocol: as §1

U-937 = experiment: Growth inhibition of U-937 cells, WST-1 assay; format: cell-based, human; settings: for Antiproliferative activity IC50: U-937, lymphoma, 5 days, WST-1
Protocol: as §1

[1] = test system: cultured human tumor cell lines; experiment: Antiproliferative activity on cultured human tumor cell lines (panel, general statements); format: cell-based; settings: in general, across the cell lines tested
Protocol: as §1

| Compound | IC50 (KB-3-1; Homo sapiens, KB 3-1, 120 h, read-out: Antiproliferative activity IC50) | IC50 (A-431; Homo sapiens, A-431, 120 h, read-out: Antiproliferative activity IC50) | IC50 (SK-OV-3; Homo sapiens, SK-OV-3, 120 h, read-out: Antiproliferative activity IC50) | IC50 (A-549; Homo sapiens, A549, 120 h, read-out: Antiproliferative activity IC50) | IC50 (PC-3; Homo sapiens, PC-3, 120 h, read-out: Antiproliferative activity IC50) | IC50 (A-498; Homo sapiens, A498, 120 h, read-out: Antiproliferative activity IC50) | IC50 (U-937; Homo sapiens, U-937, 120 h, read-out: Antiproliferative activity IC50) | Antiproliferative activity IC50 (KB-3-1) | Antiproliferative activity IC50 (A-431) | Antiproliferative activity IC50 (SK-OV-3) | Antiproliferative activity IC50 (A-549) | Antiproliferative activity IC50 (PC-3) | Antiproliferative activity IC50 (A-498) | Antiproliferative activity IC50 (U-937) | relative activity among the compounds tested [1] |
| --- | --- | --- | --- | --- | --- | --- | --- | --- | --- | --- | --- | --- | --- | --- | --- |
| C=Cc1ccc2cc1N(C)C(=O)C[C@H](OC(=O)C(C)C)[C@]1(C)O[C@H]1[C@H](C)[C@@H]1C[C@@](O)(NC(=O)O1)[C@H](OC)/C=C/C=C(\C)C2 [VI, 20-demethoxy-19-vinylansamitocin P3] | 0.4 ng/mL (≈ 0.67 nM) | 0.04 ng/mL (≈ 0.067 nM) | 0.04 ng/mL (≈ 0.067 nM) | 0.14 ng/mL (≈ 0.235 nM) | 0.1 ng/mL (≈ 0.168 nM) | 2 ng/mL (≈ 3.35 nM) | 0.05 ng/mL (≈ 0.0838 nM) |  |  |  |  |  |  |  |  |
| COc1cc2cc(c1Cl)N(C)C(=O)C[C@H](OC(=O)C(C)C)[C@]1(C)O[C@@H]1[C@H](C)[C@@H]1C[C@@](O)(NC(=O)O1)[C@H](OC)/C=C/C=C(\C)C2 [AP-3, Ansamitocin P-3, reference compound] |  |  |  |  |  |  |  | 0.11 ng/mL | 0.05 ng/mL | 0.03 ng/mL | 0.1 ng/mL | 0.035 ng/mL | 1.1 ng/mL | 0.0035 ng/mL |  |
| CO[C@@H]1/C=C/C=C(\C)Cc2ccc(Br)c(c2)N(C)C(=O)C[C@H](OC(=O)C(C)C)[C@]2(C)O[C@H]2[C@H](C)[C@@H]2C[C@@]1(O)NC(=O)O2 [Br-A, 19-bromo-20-demethoxyansamitocin P3] |  |  |  |  |  |  |  | 0.3 ng/mL | 0.1 ng/mL | 0.05 ng/mL | 0.3 ng/mL | 0.1 ng/mL | 4 ng/mL | 0.03 ng/mL |  |
| 19-chloro-20-demethoxyansamitocin P3 [Cl-A] |  |  |  |  |  |  |  | 0.35 ng/mL | 0.15 ng/mL | 0.1 ng/mL | 0.4 ng/mL | 0.12 ng/mL | 3 ng/mL | 0.035 ng/mL |  |
| 19-fluoro-20-demethoxyansamitocin P3 [F-A] |  |  |  |  |  |  |  | 0.18 ng/mL | 0.04 ng/mL | 0.035 ng/mL | 0.11 ng/mL | 0.035 ng/mL | 2 ng/mL | 0.01 ng/mL | most active |
| C=Cc1ccc2cc1N(C)C(=O)CC(OC(=O)C(C)C)C1(C)OC1C(C)C1CC(O)(NC(=O)O1)C(OC)C=CC=C(C)C2 (stereo not shown) [20-demethoxy-19-vinylansamitocin P3] |  |  |  |  |  |  |  |  |  |  |  |  |  |  | most active |
